Results on 22 compounds are retold here after patent US9056874B2, “Complement pathway modulators and uses thereof” (NOVARTIS AG, priority 2012, dated 2015).

SMILES strings stand for the structures.

One may read the IC50 as the concentration that inhibits the measured activity by half.

The target of this test is factor B (Homo sapiens, UniProt P00751). Briefly: factor B inhibition assay of Biological Example 1. The note with it: IC50 (nM), assay of Biological Example 1 (Table 1). The format is biochemical. More on the design: CVF-Bb complex prepared from purified cobra venom factor (1 μM), recombinant human complement factor B; made in house; host or cells: drosophila cells (factor B); E. coli (factor D used to form the complex).
Sequence of factor B (P00751 260-764 limits assumed): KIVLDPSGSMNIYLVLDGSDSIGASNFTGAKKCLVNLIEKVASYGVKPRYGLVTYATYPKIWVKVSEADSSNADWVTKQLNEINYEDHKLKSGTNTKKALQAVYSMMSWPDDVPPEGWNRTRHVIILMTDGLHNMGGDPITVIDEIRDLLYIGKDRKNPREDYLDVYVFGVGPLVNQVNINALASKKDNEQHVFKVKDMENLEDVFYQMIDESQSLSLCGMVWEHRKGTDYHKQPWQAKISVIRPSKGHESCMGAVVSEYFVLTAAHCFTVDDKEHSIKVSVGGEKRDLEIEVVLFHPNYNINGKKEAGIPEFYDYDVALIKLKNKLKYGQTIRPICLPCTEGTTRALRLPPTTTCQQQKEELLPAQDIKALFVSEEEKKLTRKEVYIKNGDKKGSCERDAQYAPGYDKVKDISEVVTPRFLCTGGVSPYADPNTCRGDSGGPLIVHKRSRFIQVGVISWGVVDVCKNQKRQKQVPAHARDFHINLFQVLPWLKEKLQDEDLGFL
Sequence of factor B (Q91132 23-649 partner limits assumed): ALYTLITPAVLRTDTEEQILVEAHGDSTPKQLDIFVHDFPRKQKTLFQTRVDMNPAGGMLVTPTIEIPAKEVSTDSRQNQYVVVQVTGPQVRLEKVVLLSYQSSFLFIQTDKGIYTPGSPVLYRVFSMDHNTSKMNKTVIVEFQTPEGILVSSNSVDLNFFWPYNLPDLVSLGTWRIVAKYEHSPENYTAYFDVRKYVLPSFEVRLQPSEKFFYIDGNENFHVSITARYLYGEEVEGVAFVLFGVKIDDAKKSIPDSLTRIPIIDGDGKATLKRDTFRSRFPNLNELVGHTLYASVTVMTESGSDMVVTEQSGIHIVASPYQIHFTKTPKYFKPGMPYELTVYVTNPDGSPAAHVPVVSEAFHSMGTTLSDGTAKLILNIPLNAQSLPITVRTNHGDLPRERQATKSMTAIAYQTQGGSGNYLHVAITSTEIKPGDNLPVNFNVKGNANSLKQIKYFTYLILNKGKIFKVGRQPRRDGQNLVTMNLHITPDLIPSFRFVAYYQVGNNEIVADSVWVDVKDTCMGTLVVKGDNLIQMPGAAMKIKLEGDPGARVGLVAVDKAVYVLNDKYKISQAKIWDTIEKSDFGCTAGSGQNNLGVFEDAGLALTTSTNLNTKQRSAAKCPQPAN
Sequence of factor B (Q91132 733-984 partner limits assumed): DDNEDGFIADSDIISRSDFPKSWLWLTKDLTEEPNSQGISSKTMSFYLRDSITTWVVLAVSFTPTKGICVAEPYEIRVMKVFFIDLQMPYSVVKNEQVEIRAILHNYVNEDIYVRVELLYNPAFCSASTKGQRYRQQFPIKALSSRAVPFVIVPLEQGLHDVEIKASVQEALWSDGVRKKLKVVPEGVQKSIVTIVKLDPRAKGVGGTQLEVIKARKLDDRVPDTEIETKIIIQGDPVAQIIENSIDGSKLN
Sequence of factor B (Q91132 1264-1642 partner limits assumed): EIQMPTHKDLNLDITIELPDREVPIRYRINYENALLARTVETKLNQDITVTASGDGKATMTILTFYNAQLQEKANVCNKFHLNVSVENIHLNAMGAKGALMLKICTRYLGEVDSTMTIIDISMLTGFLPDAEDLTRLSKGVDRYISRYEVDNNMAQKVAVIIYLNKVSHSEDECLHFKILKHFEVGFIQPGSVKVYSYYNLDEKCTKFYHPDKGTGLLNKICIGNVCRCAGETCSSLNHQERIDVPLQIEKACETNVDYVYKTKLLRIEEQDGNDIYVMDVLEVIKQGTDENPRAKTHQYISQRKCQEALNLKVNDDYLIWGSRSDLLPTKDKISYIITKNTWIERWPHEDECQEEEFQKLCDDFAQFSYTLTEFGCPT
For `CCc1cc(C)c2[nH]ccc2c1C(C)(OC)c1nc2cc(C#N)ccc2[nH]1` (single isomer, unassigned; (+)) [84-C b) (+), (+)-2-(1-(5-ethyl-7-methyl-1H-indol-4-yl)-1-methoxyethyl)-1H-benzo[d]imidazole-5-carbonitrile], the IC50 was found to be 150 nM.

For `CCc1cc(C)c2[nH]ccc2c1C(OC)(c1nc2cc(C#N)ccc2[nH]1)C(F)(F)F` (single isomer, unassigned; (+)) [84-D b) (+), (+)-2-(1-(5-ethyl-7-methyl-1H-indol-4-yl)-2,2,2-trifluoro-1-methoxyethyl)-1H-benzo[d]imidazole-5-carbonitrile], the IC50 worked out at 460 nM.

Turning to `COC(C)(c1nc2cc(C#N)ccc2[nH]1)c1c(CC(C)C)cc(C)c2[nH]ccc12` (single isomer, unassigned; (+)) [84-E b) (+), (+)-2-(1-(5-isobutyl-7-methyl-1H-indol-4-yl)-1-methoxyethyl)-1H-benzo[d]imidazole-5-carbonitrile], the IC50 was determined as 1200 nM.

With `Cc1cc(C)c2[nH]ccc2c1C(N)c1nc2ccc(C#N)cc2[nH]1` (single isomer, unassigned; (+)) [95-B b) (+), (+)-2-(amino(5,7-dimethyl-1H-indol-4-yl)methyl)benzo[d]imidazole-5-carbonitrile], the IC50 was determined as 2140 nM.

For `CCc1cc(C)c2[nH]ccc2c1C(N)c1nc2cc(C#N)ccc2[nH]1` (single isomer, unassigned; (+)) [96-C b) (+), (+)-2-(amino(5-ethyl-7-methyl-1H-indol-4-yl)methyl)-1H-benzo[d]imidazole-5-carbonitrile], the IC50 was determined as 2210 nM.

Turning to `CCc1cc(C)c2[nH]ccc2c1C(C)(N)c1nc2cc(C#N)ccc2[nH]1` (single isomer, unassigned; (+)) [102-C b) (+), (+)-2-(1-amino-1-(5-ethyl-7-methyl-1H-indol-4-yl)ethyl)-1H-benzo[d]imidazole-5-carbonitrile], the IC50 is 50 nM.

Consider `Cc1cc(C2CC2)c(C(C)(N)c2nc3cc(C#N)ccc3[nH]2)c2cc[nH]c12` (single isomer, unassigned; (+)) [102-D b) (+), (+)-2-(1-amino-1-(5-cyclopropyl-7-methyl-1H-indol-4-yl)ethyl)-1H-benzo[d]imidazole-5-carbonitrile], for which the IC50 turned out to be 6 nM.

Consider `Cc1cc(Br)c(C(N)(c2nc3cc(C#N)ccc3[nH]2)C(F)(F)F)c2cc[nH]c12` (single isomer, unassigned; (+)) [105-B b) (+), (+)-2-(1-amino-1-(5-bromo-7-methyl-1H-indol-4-yl)-2,2,2-trifluoroethyl)-1H-benzo[d]imidazole-5-carbonitrile], for which the IC50 is 90 nM.

Regarding `CNC(c1nc2cc(C#N)ccc2[nH]1)(c1c(Br)cc(C)c2[nH]ccc12)C(F)(F)F` (single isomer, unassigned; (+)) [106 b) (+), (+)-2-(1-(5-bromo-7-methyl-1H-indol-4-yl)-2,2,2-trifluoro-1-(methylamino)ethyl)-1H-benzo[d]imidazole-5-carbonitrile], the IC50 was determined as 150 nM.

Consider `CCc1cc(C)c2[nH]ccc2c1C(NC)(c1nc2cc(C#N)ccc2[nH]1)C(F)(F)F` (single isomer, unassigned; (+)) [107-B b) (+), (+)-2-(1-(5-ethyl-7-methyl-1H-indol-4-yl)-2,2,2-trifluoro-1-(methylamino)ethyl)-1H-benzo[d]imidazole-5-carbonitrile], for which the IC50 was determined as 140 nM.

Regarding `CCc1cc(C)c2[nH]ccc2c1C(N)(c1nc2cc(C#N)ccc2[nH]1)C(F)(F)F` (single isomer, unassigned; (+)) [107-C b) (+)], the IC50 is 400 nM.

Take `Cc1cc(C2CC2)c(C(N)(c2nc3cc(C#N)ccc3[nH]2)C(F)(F)F)c2cc[nH]c12` (single isomer, unassigned; (+)) [107-D b) (+), (+)-2-(1-amino-1-(5-cyclopropyl-7-methyl-1H-indol-4-yl)-2,2,2-trifluoroethyl)-1H-benzo[d]imidazole-5-carbonitrile]: the IC50 was determined as 50 nM.

Consider `CNC(c1nc2cc(C#N)ccc2[nH]1)(c1c(C2CC2)cc(C)c2[nH]ccc12)C(F)(F)F` (single isomer, unassigned; (+)) [107-E b) (+), (+)-2-(1-(5-cyclopropyl-7-methyl-1H-indol-4-yl)-2,2,2-trifluoro-1-(methylamino)ethyl)-1H-benzo[d]imidazole-5-carbonitrile], for which the IC50 worked out at 240 nM.

On to `COc1cc(C)c2c(c1C(C)(OC)c1nc3cc(C#N)ccc3[nH]1)CCN2` (single isomer, unassigned; (+)) [124 b) (+), (+)-2-(1-methoxy-1-(5-methoxy-7-methylindolin-4-yl)ethyl)-1H-benzo[d]imidazole-5-carbonitrile], for which the IC50 turned out to be 490 nM.

For `COc1cc(C)c2[nH]ccc2c1C(O)c1nc2cc(C#N)ccc2o1` (single isomer, unassigned; (+)) [125-B b) (+), (+)-2-(hydroxy(5-methoxy-7-methyl-1H-indol-4-yl)methyl)benzo[d]oxazole-5-carbonitrile], the IC50 was 180 nM.

With `COc1cc(C)c2[nH]ccc2c1C(O)(c1nc2cc(C#N)ccc2o1)C(F)(F)F` (single isomer, unassigned; (+)) [128-B b) (+), (+)-2-(2,2,2-trifluoro-1-hydroxy-1-(5-methoxy-7-methyl-1H-indol-4-yl)ethyl)benzo[d]oxazole-5-carbonitrile], the 50% inhibitory concentration (IC50) came out at 1990 nM.

As to `COc1cc(C)c2[nH]ccc2c1C(C)(N)c1nc2cc(C#N)ccc2o1` (single isomer, unassigned; (+)) [131-B b) (+), (+)-2-(1-amino-1-(5-methoxy-7-methyl-1H-indol-4-yl)ethyl)benzo[d]oxazole-5-carbonitrile], the IC50 worked out at 140 nM.

Regarding `CCc1cc(C)c2[nH]cc(C(F)(F)F)c2c1C(C)(O)c1nc2cc(C#N)ccc2[nH]1` (single isomer, unassigned; (+)) [Example 88, (+)-2-(1-(5-Ethyl-7-methyl-3-(trifluoromethyl)-1H-indol-4-yl)-1-hydroxyethyl)-1H-benzo[d]imidazole-5-carbonitrile], the IC50 worked out at 57900 nM.

Take `Cc1cc(OC(F)F)c(C(O)c2nc3cc(C#N)ccc3[nH]2)c2cc[nH]c12` (single isomer, unassigned; (-)) [3-B b) (−), (−)-2-((5-(difluoromethoxy)-7-methyl-1H-indol-4-yl)(hydroxy)methyl)-1H-benzo[d]imidazole-5-carbonitrile]: the IC50 turned out to be 250 nM.

For `Cc1cc(OC(F)F)c(C(C)(N)c2nc3cc(C#N)ccc3[nH]2)c2cc[nH]c12` (single isomer, unassigned; (-)) [5-E b) (−), (−)-2-(1-amino-1-(5-(difluoromethoxy)-7-methyl-1H-indol-4-yl)ethyl)-1H-benzo[d]imidazole-5-carbonitrile], the IC50 was determined as 40 nM.

For `COC(C)(c1nc2cc(C#N)ccc2[nH]1)c1c(OC(F)F)cc(C)c2[nH]ccc12` (single isomer, unassigned; (-)) [8-B b) (−), (−)-2-(1-(5-(difluoromethoxy)-7-methyl-1H-indol-4-yl)-1-methoxyethyl)-1H-benzo[d]imidazole-5-carbonitrile], the IC50 was 900 nM.

Take `Cc1cc(S(C)(=O)=O)c(C(C)(N)c2nc3cc(C#N)ccc3[nH]2)c2cc[nH]c12` (single isomer, unassigned; (-)) [13-E b) (−), (−)-2-(1-Amino-1-(7-methyl-5-(methylsulfonyl)-1H-indol-4-yl)ethyl)-1H-benzo[d]imidazole-5-carbonitrile]: the IC50 was determined as 1410 nM.
